Measurements reported in the supplement of paper PMC13380429.
± gives the standard deviation of the averaged measurements.

Assays:
Details in all cases: 72 h
[1] = system: Calu-3; experiment: drug sensitivity score (DSS) for viability; higher = more toxic; extreme values may be limits of the assay
[2] = system: HepG2; experiment: as above
[3] = system: U2OS; experiment: as above
[4] = system: Caco-2; experiment: as above
[5] = system: Vero E6; experiment: as above
[6] = system: Calu-3; experiment: relative viability EC50 (midpoint between 100% and the lowest measured viability); higher = less toxic
[7] = system: HepG2; experiment: as above
[8] = system: U2OS; experiment: as above
[9] = system: Caco-2; experiment: as above
[10] = system: Vero E6; experiment: as above
[11] = system: Calu-3; experiment: cell viability relative to DMSO; higher = less toxic
[12] = system: HepG2; experiment: as above
[13] = system: U2OS; experiment: as above
[14] = system: Caco-2; experiment: as above
[15] = system: Vero E6; experiment: as above

SMILES | drug sensitivity score [1] | drug sensitivity score [2] | drug sensitivity score [3] | drug sensitivity score [4] | drug sensitivity score [5] | relative viability EC50 [6] | relative viability EC50 [7] | relative viability EC50 [8] | relative viability EC50 [9] | relative viability EC50 [10] | cell viability ([11]; 1 nM) | cell viability ([11]; 10 nM) | cell viability ([11]; 100 nM) | cell viability ([11]; 1000 nM) | cell viability ([11]; 10000 nM) | cell viability ([12]; 1 nM) | cell viability ([12]; 10 nM) | cell viability ([12]; 100 nM) | cell viability ([12]; 1000 nM) | cell viability ([12]; 10000 nM) | cell viability ([13]; 1 nM) | cell viability ([13]; 10 nM) | cell viability ([13]; 100 nM) | cell viability ([13]; 1000 nM) | cell viability ([13]; 10000 nM) | cell viability ([14]; 1 nM) | cell viability ([14]; 10 nM) | cell viability ([14]; 100 nM) | cell viability ([14]; 1000 nM) | cell viability ([14]; 10000 nM) | cell viability ([15]; 1 nM) | cell viability ([15]; 10 nM) | cell viability ([15]; 100 nM) | cell viability ([15]; 1000 nM) | cell viability ([15]; 10000 nM)
CC[C@H](C)C[C@H](C)CCCCCCCCC(=O)N[C@H]1C[C@@H](O)[C@@H](NCCN)NC(=O)[C@@H]2[C@@H](O)CCN2C(=O)[C@H]([C@H](O)CCN)NC(=O)[C@H]([C@H](O)[C@@H](O)c2ccc(O)cc2)NC(=O)[C@@H]2C[C@@H](O)CN2C(=O)[C@H]([C@@H](C)O)NC1=O [caspofungin] | 0.1 ± 0.14 | 0 | 0 | 1.35 ± 1.9 | 0 | > 10 µM | > 10 µM | > 10 µM | > 10 µM | > 10 µM | 104 ± 13% | 104 ± 14% | 104 ± 1.4% | 96.5 ± 5.9% | 89.5 ± 0.85% | 91.8% | 106% | 110% | 116% | 103% | 95.2 ± 2.2% | 95.6 ± 0.14% | 98 ± 1.3% | 98.2 ± 6.6% | 99 ± 1.6% | 88.2 ± 4.6% | 96.5 ± 3% | 115 ± 24% | 90.2 ± 18% | 95 ± 1.3% | 98.1 ± 1.8% | 99 ± 3.3% | 98.85 ± 0.64% | 95.1 ± 1.6% | 101 ± 7.1%
CC1=C(C(=O)O)N2C(=O)[C@@H](NC(=O)[C@H](N)c3ccc(O)cc3)[C@H]2SC1 [cefadroxil] | 0 | 0 | 0 | 0 | 0 | > 10 µM | > 10 µM | > 10 µM | > 10 µM | > 10 µM | 100% | 99.1% | 107% | 93.2% | 106% | 90.4% | 101% | 95.6% | 103% | 105% | 101% | 96.2% | 99.4% | 97% | 103% | 92.8% | 93.5% | 93.1% | 85.7% | 99.1% | 89.4% | 101% | 91.8% | 98.1% | 104%
CO[C@@]1(NC(=O)Cc2cccs2)C(=O)N2C(C(=O)O)=C(COC(N)=O)CS[C@@H]21 [cefoxitin] | 0 | 0 | 0 | 0 | 0.5 | > 10 µM | > 10 µM | > 10 µM | > 10 µM | > 10 µM | 106% | 94.4% | 106% | 104% | 110% | 113% | 91.4% | 98.1% | 97.4% | 97.4% | 95.6% | 99% | 96.3% | 102% | 105% | 90.1% | 95.5% | 102% | 101% | 97.8% | 104% | 95.7% | 100% | 96.8% | 85.5%
Nc1nc(/C(=C/CC(=O)O)C(=O)N[C@@H]2C(=O)N3C(C(=O)O)=CCS[C@H]23)cs1 [ceftibuten] | 0 | 0 | 0 | 0 | 0 | > 10 µM | > 10 µM | > 10 µM | > 10 µM | > 10 µM | 103% | 99.9% | 102% | 94.6% | 106% | 86.3% | 105% | 99.3% | 95.3% | 91% | 101% | 95% | 100% | 97.8% | 106% | 102% | 102% | 106% | 94.9% | 104% | 99.5% | 104% | 96.1% | 104% | 97.8%
CN1C(=O)CCS(=O)(=O)C1c1ccc(Cl)cc1 (stereo not given) [chlormezanone] | 0 | 0 | 0 | 0 | 0 | > 10 µM | > 10 µM | > 10 µM | > 10 µM | > 10 µM | 96% | 102% | 96.6% | 97.6% | 102% | 96.5% | 97.7% | 96.7% | 103% | 103% | 101% | 97.1% | 102% | 95.7% | 103% | 94.4% | 96.2% | 101% | 95.7% | 99.6% | 103% | 106% | 104% | 103% | 97.8%
Cc1cc(O)c(C(C)C)cc1Cl [chlorothymol] | 0 | 0 | 0 | 0 | 0 | > 10 µM | > 10 µM | > 10 µM | > 10 µM | > 10 µM | 100% | 83.8% | 101% | 93.5% | 91.9% | 89.8% | 90.1% | 92.9% | 98.7% | 104% | 99.5% | 97.9% | 104% | 95.9% | 102% | 95.6% | 90.3% | 95.8% | 101% | 99.6% | 96.9% | 96.9% | 93.7% | 100% | 109%
Nc1ccn(C[C@@H](CO)OCP(=O)(O)O)c(=O)n1 [cidofovir] | 0 | 0 | 0 | 0 | 0 | > 10 µM | > 10 µM | > 10 µM | > 10 µM | > 10 µM | 93.7% | 104% | 112% | 101% | 107% | 97% | 98.3% | 104% | 111% | 120% | 99.4% | 95.7% | 97.5% | 95.3% | 98.7% | 103% | 92.7% | 106% | 96.8% | 101% | 93.7% | 94.3% | 88.4% | 87.4% | 99.6%
CN(C(=O)CCCOc1ccc2[nH]c(=O)ccc2c1)C1CCCCC1 [cilostamide] | 0 | 0 | 0 | 0 | 0 | > 10 µM | > 10 µM | > 10 µM | > 10 µM | > 10 µM | 92.8% | 92.9% | 94.6% | 85.3% | 105% | 97.2% | 98.7% | 98.8% | 110% | 110% | 102% | 95.5% | 101% | 92.9% | 97% | 100% | 94.7% | 99.2% | 96.9% | 90.6% | 91.7% | 98.3% | 89.8% | 98.1% | 104%
O=C/C=C/c1ccccc1 [cinnamaldehyde] | 0 | 0 | 0 | 0 | 0 | > 10 µM | > 10 µM | > 10 µM | > 10 µM | > 10 µM | 90.3% | 105% | 105% | 95.1% | 102% | 97.8% | 100% | 108% | 108% | 97.5% | 106% | 99.2% | 98.6% | 96.8% | 99.4% | 103% | 94.2% | 96.9% | 97.6% | 101% | 92.3% | 99.5% | 96.7% | 98.7% | 95.9%
C=C[C@@]1(C)CC(=O)[C@]2(O)[C@@]3(C)[C@@H](O)CCC(C)(C)[C@@H]3[C@H](O)[C@H](OC(C)=O)[C@@]2(C)O1 [colforsin] | 0 | 0 | 0 | 0 | 0.4 ± 0.28 | > 10 µM | > 10 µM | > 10 µM | > 10 µM | > 10 µM | 106 ± 14% | 109 ± 11% | 103 ± 3% | 106 ± 2.1% | 97.5 ± 7.2% | 110 ± 8.1% | 106 ± 3.4% | 101 ± 3.2% | 96.4 ± 4.8% | 99.2 ± 3.2% | 101 ± 1.1% | 101 ± 5% | 95.9 ± 0.28% | 100 ± 1.4% | 96.65 ± 0.64% | 97.9 ± 2.7% | 99.3 ± 1.3% | 100 ± 3.5% | 109 ± 6.7% | 118 ± 10% | 97.7 ± 6.5% | 101 ± 14% | 103 ± 4.5% | 89.9 ± 3.5% | 85.7 ± 4.3%
N#CCC(=O)NN [cyacetacide] | 0 | 0 | 0 | 0 | 0 | > 10 µM | > 10 µM | > 10 µM | > 10 µM | > 10 µM | 84% | 103% | 96.3% | 95.7% | 108% | 95.7% | 91.9% | 97% | 97.4% | 93.4% | 95.5% | 103% | 96% | 94% | 102% | 98.2% | 102% | 100% | 95.6% | 97.8% | 106% | 98.6% | 102% | 108% | 102%
